Laboratory results as given in patent publication US20080213768A1, “Identification and use of biomarkers for non-invasive and early detection of liver injury” (priority 2006, published 2008).

Columns and labels:
Type in all cases: in vivo
human serum = experiment: Biochemical profiling of human serum after single oral dose of APAP, correlated with rat; parameters: key: X: Biochemicals significantly changed by APAP in both rat and human biological samples; details: humans single oral dose of 4 g APAP
Method: (§1) Six healthy human volunteers received a standardized soy shake diet for 72 hours. Each volunteer received a single oral dose of 4 g APAP (˜50 mg/kg). Serum and urine were sampled at 0, 6, 18, 24, 48, 72 and 96 hours (urine collected between these times). BCP analysis was carried out as described in Example 1.

rat urine = experiment: Biochemical profiling (LC-MS) of rat urine after a single dose of acetaminophen; parameters: key to Pipecolate significantly changed / Ribose significantly changed / Tyrosine significantly changed: (x = significantly changed)
human urine = experiment: Biochemical profiling of human urine after single oral dose of APAP, correlated with rat; parameters: key: X: Biochemicals significantly changed by APAP in both rat and human biological samples; details: humans single oral dose of 4 g APAP
Method: as §1

rat serum = experiment: Biochemical profiling (LC-MS) of rat serum after a single dose of acetaminophen; parameters: key to Pipecolate significantly changed / Citrulline significantly changed: (x = significantly changed)

CC(=O)Nc1ccc(O)cc1 [acetaminophen]
X: Citrulline significantly changed by APAP in both rat and human (human serum) | Creatinine significantly changed by APAP in both rat and human (human serum) | Glutamate significantly changed by APAP in both rat and human (human serum) | Glutamine significantly changed by APAP in both rat and human (human serum) | Guanosine significantly changed by APAP in both rat and human (human serum) | Homoserine significantly changed by APAP in both rat and human (human serum) | Hypoxanthine significantly changed by APAP in both rat and human (human serum) | Ornithine significantly changed by APAP in both rat and human (human serum) | Phenylalanine significantly changed by APAP in both rat and human (human serum) | Pipecolate significantly changed by APAP in both rat and human (human serum) | 2-Oxoglutarate significantly changed by APAP in both rat and human (human urine) | 5-Hyroxytryptophan significantly changed by APAP in both rat and human (human urine) | Cytosine significantly changed by APAP in both rat and human (human urine) | Glutamate significantly changed by APAP in both rat and human (human urine) | Lysine significantly changed by APAP in both rat and human (human urine) | Serine significantly changed by APAP in both rat and human (human urine)
significant variation from control: responses of aspartic acid, Peak12, glutamine, Peak20, succinic acid and Peak26 versus control (baseline) (rat urine; study of Example 1) | responses of aspartic acid, Peak12, glutamine, Peak20, succinic acid and Peak26 versus control (baseline) (rat serum; study of Example 1)
did not vary significantly from control: response for Peak13 in urine versus control (rat urine; study of Example 1)
not observed: Peak13 presence in serum (rat serum; study of Example 1)
x: Pipecolate significantly changed (rat urine) | Ribose significantly changed (rat urine) | Tyrosine significantly changed (rat urine) | Citrulline significantly changed (rat serum) | Pipecolate significantly changed (rat serum)
